From patent US11529359B2, “Use of GABAA receptor modulators for treatment of itch” (UNIVERSITÄT ZÜRICH, priority 2016, dated 2022)

What was measured:
α5 GABAA receptors = molecular target: T1, α5 GABAA receptors (Mus musculus, UniProt P22723+Q8BHJ7); test: α-Me-5HT-induced itch (cheek injection) in RRRH triple point-mutated mice (α5 only); type: in vivo, mice (129X1/SvJ genetic background); details: DZP 10 mg/kg per oral 1 h before 20 μg α-Me-5HT, 20 min
T1 construct: endogenous in cells; host or cells: living triple point-mutated mice with only α5 diazepam-sensitive
T1 sequence (Q8BHJ7 32-463 limits assumed): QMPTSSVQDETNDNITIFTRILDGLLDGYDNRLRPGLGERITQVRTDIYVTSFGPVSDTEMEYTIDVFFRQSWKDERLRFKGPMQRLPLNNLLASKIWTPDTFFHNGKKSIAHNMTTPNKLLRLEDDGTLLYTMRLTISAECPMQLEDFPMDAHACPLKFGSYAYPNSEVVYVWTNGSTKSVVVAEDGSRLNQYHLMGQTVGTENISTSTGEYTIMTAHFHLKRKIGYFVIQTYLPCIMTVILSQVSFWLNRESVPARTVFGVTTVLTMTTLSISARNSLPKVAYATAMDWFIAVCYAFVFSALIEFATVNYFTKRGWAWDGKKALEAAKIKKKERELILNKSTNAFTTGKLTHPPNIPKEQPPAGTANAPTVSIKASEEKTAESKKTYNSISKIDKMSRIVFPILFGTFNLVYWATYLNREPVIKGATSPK
T1 sequence (P63080 26-473 partner): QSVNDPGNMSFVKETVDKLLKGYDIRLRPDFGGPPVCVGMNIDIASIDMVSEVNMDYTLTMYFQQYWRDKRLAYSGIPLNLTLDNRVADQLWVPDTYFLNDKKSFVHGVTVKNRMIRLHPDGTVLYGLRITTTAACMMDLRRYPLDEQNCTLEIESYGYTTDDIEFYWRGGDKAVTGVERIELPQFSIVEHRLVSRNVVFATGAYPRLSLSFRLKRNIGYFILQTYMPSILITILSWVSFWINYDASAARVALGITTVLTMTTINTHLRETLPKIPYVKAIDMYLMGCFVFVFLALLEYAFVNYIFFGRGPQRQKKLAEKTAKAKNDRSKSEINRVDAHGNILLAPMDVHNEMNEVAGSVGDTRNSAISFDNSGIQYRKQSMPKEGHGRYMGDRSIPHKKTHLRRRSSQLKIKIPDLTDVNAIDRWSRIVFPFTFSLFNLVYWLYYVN
T1 sequence (P22723 39-474): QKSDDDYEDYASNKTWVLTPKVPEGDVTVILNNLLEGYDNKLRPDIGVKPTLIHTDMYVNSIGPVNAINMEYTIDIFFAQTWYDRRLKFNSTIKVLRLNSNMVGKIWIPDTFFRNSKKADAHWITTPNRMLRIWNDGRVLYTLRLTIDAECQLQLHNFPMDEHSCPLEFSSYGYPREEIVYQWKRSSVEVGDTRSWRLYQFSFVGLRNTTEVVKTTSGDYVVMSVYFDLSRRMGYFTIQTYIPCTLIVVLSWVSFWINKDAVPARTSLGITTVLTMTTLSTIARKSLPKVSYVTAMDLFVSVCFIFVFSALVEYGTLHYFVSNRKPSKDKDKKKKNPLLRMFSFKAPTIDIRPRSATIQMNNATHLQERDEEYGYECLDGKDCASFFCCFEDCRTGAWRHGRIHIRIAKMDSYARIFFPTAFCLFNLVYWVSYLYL
Description: (§1) Because mice of this particular genetic background (129SvJ) have not yet been systematically analyzed in itch experiments, the inventors first assessed the sensitivity of these mice to a battery of pruritogens injected into the right cheek.
(§2) Acute itch was assessed in mice that received intradermal microinjections of pruritogens or 0.9% saline into the right cheek, which had been shaved at least one day before the experiment. In two sets of experiments that addressed the contribution of GABAARs in primary and secondary pruritoceptors, pruritogens were injected in the right thigh (FIG. 17). Before injection, mice were acclimatized to a 15 cm diameter cylindrical enclosure for more than 30 min with cage bedding on the ground. Background white noise generated by a radio in the room at ambient volume was applied to prevent auditory distraction. […] Videos were analyzed off-line. Scratching of the hind paw directed to the ipsilateral cheek was counted in bouts, with one scratching bout defined as an instance when the mouse lifted its paw to scratch until it returned the paw to the cage floor. In case of experiments in which the pruritogen was injected in the skin of the thigh, the time spent biting the injected skin area was counted in s/min as a measure of itch.

α2 GABAA receptors = molecular target: T2, α2 GABAA receptors (Mus musculus, UniProt P22723+P26048); test: α-Me-5HT-induced itch (cheek injection) in RHRR triple point-mutated mice (α2 only); type: in vivo, mice (129X1/SvJ genetic background)
T2 construct: endogenous in cells; host or cells: living RHRR triple point-mutated mice (129X1/SvJ)
T2 sequence (P26048 29-451): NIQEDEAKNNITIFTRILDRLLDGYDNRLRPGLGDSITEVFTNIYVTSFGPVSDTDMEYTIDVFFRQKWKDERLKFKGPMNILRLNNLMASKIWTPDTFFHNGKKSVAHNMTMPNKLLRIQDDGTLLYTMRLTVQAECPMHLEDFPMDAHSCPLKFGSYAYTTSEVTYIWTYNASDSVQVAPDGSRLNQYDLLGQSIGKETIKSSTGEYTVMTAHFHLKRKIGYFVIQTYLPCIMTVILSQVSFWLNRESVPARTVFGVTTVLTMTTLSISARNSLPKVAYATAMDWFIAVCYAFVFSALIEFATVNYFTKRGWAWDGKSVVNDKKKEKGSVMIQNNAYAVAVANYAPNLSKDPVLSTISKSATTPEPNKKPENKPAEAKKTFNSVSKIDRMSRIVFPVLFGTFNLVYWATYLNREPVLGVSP
T2 sequence (P63080 26-473 partner): as the sequence (P63080 26-473 partner) above
T2 sequence (P22723 39-474): as the sequence (P22723 39-474) above
Description: as §1, §2

[1] = test system: α2, α3 or α5 GABAA receptors; test: oxazolone contact dermatitis model of chronic itch in GABAAR triple point-mutated mice; type: in vivo, mice (129X1/SvJ genetic background); details: 10 mg/kg i.p. on day 18; recorded 4 hours after injection
α3 GABAA receptors = molecular target: T3, α3 GABAA receptors (Mus musculus, UniProt P22723+P26049); test: α-Me-5HT-induced itch (cheek injection) in RRHR triple point-mutated mice (α3 only); type: in vivo, mice (129X1/SvJ genetic background)
T3 construct: endogenous in cells; host or cells: living RRHR triple point-mutated mice (129X1/SvJ)
T3 sequence (P26049 29-492): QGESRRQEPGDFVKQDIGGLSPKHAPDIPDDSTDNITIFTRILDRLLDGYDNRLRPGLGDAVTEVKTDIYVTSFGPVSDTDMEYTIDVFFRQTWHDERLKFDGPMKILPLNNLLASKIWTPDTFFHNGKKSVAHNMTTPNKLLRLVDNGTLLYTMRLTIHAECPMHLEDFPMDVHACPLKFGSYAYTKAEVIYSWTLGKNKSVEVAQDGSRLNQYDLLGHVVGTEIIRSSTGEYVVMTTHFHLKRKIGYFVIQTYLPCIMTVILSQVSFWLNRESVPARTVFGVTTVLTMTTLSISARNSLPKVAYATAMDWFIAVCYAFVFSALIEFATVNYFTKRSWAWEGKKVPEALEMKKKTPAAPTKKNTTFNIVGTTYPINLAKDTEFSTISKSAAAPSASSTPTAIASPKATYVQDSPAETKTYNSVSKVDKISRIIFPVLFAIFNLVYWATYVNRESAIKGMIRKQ
T3 sequence (P63080 26-473 partner): as the sequence (P63080 26-473 partner) above
T3 sequence (P22723 39-474): as the sequence (P22723 39-474) above
Description: as §1, §2

[2] = test system: contact dermatitis-induced chronic itch; test: oxazolone contact dermatitis model of chronic itch in wild-type mice; type: in vivo, wild-type C57BL6/J mice; details: 10 mg/kg i.p. on day 18; 15 to 210 min after injection
Description: Thus, TPA023B is, in accordance with the other findings of the inventors, suitable as an antipruritic substance.
This was independent of the treatment they received from day 7 to day 27.
The inventors sought to confirm the antipruritic efficacy of α2 and α3 GABAA receptor agonists against contact dermatitis-induced chronic itch. To this end, N-desmethyl clobazam, a benzodiazepine with improved activity at α2 versus α1 was assessed for its antipruritic effects (Jensen et al. PLoS One. 2014 Feb. 12; 9(2):e88456.).
Chronic itch was investigated in the contact dermatitis model (Kido-Nakahara, M., et al. J Clin Invest, 2014, 124, 2683-2695). Mice were treated once with 10% oxazolone in acetone/olive oil (4:1 v/v) on the shaved nape of the neck (100 μl) on day 0. After a resting period of 7 days, mice were treated with 1% oxazolone in acetone/olive oil (4:1 v/v) on the nape of the neck (100 μl) every other day for 10 days. On the day of the experiment, mice were injected with drug or vehicle i.p. under short and light isoflurane anesthesia. […]

α-Me-5HT-induced itch = test: α-methyl 5-HT-induced itch (cheek injection) in wild-type mice; type: in vivo, wild-type mice (129X1/SvJ)
α3 GABAA receptor = molecular target: T4, α3 GABAA receptor (Mus musculus, UniProt P22723+P26049, H154R); test: α-Me-5HT-induced itch in HHRH mice (α3-GABAAR DZP-insensitive); type: in vivo; details: 10 mg/kg per oral 1 h before 20 μg α-Me-5HT; 20 min
T4 construct: endogenous in cells; host or cells: living HHRH single point-mutated mice (knock-in)
T4 sequence (P26049 29-492 H154R): as the sequence (P26049 29-492) above, with H126R counted along it
T4 sequence (P63080 26-473 partner): as the sequence (P63080 26-473 partner) above
T4 sequence (P22723 39-474): as the sequence (P22723 39-474) above
Description: Wild-type and GABAAR single point mutated mice in which only α3 is rendered DZP-insensitive (HHRH mice) received per oral injection of 10 mg/kg TP003 or vehicle. One hour after injection, the mice received a 20 μg α-Me-5HT cheek injection to elicit itching. Over the course of twenty minutes scratching bouts directed at the ipsilateral cheek were recorded and TP003 injected mice compared with vehicle injected control mice (FIGS. 8A & 8B).
as §2, with “ground.” for “ground. Background white noise generated by a radio in the room at ambient volume was applied to prevent auditory distraction.”

[3] = test system: brain membranes prepared from α1,2,3,5 H→R point mutated mice; type: binding, mice (RRRR); details: 4 nM [3H]Ro 15-4513; increasing concentrations; n=4
Description: The supernatant was centrifuged for 20 min at 30,000 g and the resulting crude membrane pellet was washed once with buffer. […] Non-specific [^3H]Ro 15-4513 binding was assessed by addition of 10 μM flumazenil to the reaction. Incubation was stopped by rapid vacuum filtration using a semiautomatic cell harvester (Skatron Instruments) and washed filters were subjected to liquid scintillation counting.

chloroquine-induced itch = chloroquine-induced itch (cheek injection) in wild-type mice; type: in vivo, wild-type C57BL6/J mice; details: 30 mg/kg intraperitoneal; 100 μg chloroquine; 30 min
Description: as §2, with “distraction. A 30 gauge needle was inserted bevel-up and pushed 5 mm horizontally into the skin beyond the point of insertion, before injection of the pruritogen (in a total volume of 10 μl). No anesthesia was used. Correct injection was confirmed by the appearance of a slightly domed bulla upon injection.” for “distraction.”

For `CN1C(=O)CN=C(c2ccccc2)c2cc(Cl)ccc21` [DZP, Diazepam], the “scratching bouts directed at the ipsilateral cheek vs vehicle” value (α5 GABAA receptors) was “no significant reduction in scratching bouts”, the “scratching bouts directed at the ipsilateral cheek vs vehicle” value (α2 GABAA receptors; RHRR mice (α2 only), DZP 10 mg/kg per oral 1 h before 20 μg α-Me-5HT, 20 min) was “significant reduction of scratching bouts” and the “dose-response of scratching bouts” value (α2 GABAA receptors; RHRR mice, 0.1, 0.3, 1, 3, 10 and 30 mg/kg per oral 1 h before 20 μg α-Me-5HT, 30 min) was “dose-dependent reduction of scratching bouts”. The “number of scratching bouts directed at the nape of the neck vs vehicle” value [1] was “significant reduction in the number of scratching bouts”, the “dose-dependence of antipruritic effects” value (α3 GABAA receptors; RRHR mice (FIG. 2C), oral DZP 1 h before 20 μg α-Me-5HT) was “dose-dependent antipruritic effects” and the “scratching bouts directed at the ipsilateral cheek vs vehicle” value (α3 GABAA receptors; RRHR mice (α3 only), DZP 10 mg/kg per oral 1 h before 20 μg α-Me-5HT, 20 min) was “significant reduction of scratching bouts”.

For `O=C1CC(=O)N(c2ccccc2)c2cc(Cl)ccc2N1` [NDMC, N-desmethyl clobazam], the “scratching bouts directed at the nape of the neck vs vehicle” value [2] was “significant reduction in scratching bouts”.

`CC(C)(O)c1ccn2c(-c3ccc(F)c(-c4ccc(F)cc4C#N)c3)cnc2c1F` [TP003, 4,2′-difluoro-5′-[8-fluoro-7-(1-hydroxy-1-methylethyl)imidazo[1,2-a]pyridin-3-yl]biphenyl-2-carbonitrile] was tested, and the “scratching bouts directed at the ipsilateral cheek vs vehicle” value (α-Me-5HT-induced itch; wild-type 129X1/SvJ mice, 10 mg/kg per oral 1 h before 20 μg α-Me-5HT, 20 min) was “significant reduction of scratching bouts” and the “antipruritic effect in HHRH mice” value (α3 GABAA receptor) was “absent”.

`CC(C)(C)OC(=O)c1ncn2c1[C@@H]1CCCN1C(=O)c1c(Br)cccc1-2` [bretazenil] was tested, and the “displacement of [3H]Ro 15-4513 binding” value [3] was “dose-dependently inhibited”.

For `CC(=O)[C@H]1CC[C@H]2[C@@H]3CC[C@H]4C[C@](C)(O)CC[C@]4(C)[C@H]3CC[C@]12C` [ganaxolone], the “number of scratching bouts vs vehicle” value (chloroquine-induced itch) was “significant reduction in number scratching bouts”.

For `CC(N)Cc1c[nH]c2ccc(O)cc12` (stereo not drawn) [α-methyl 5-HT, α-methyl-5-hydroxy-tryptamine], the “scratching behavior directed to the injected site” value (α-Me-5HT-induced itch; different doses injected into the right cheek, wild-type 129X1/SvJ, 30 min) was “dose-dependent robust scratching behavior”.
